This is an account of results in patent publication US20170128480A1, “Cardiac Glycosides for the Treatment of Hypercholesterolemia” (priority 2015, published 2017).

Assay [1] deals with human ApoB-100. The experiment in a line: Drug treatment of humanized FRGN avatar mice, serum human ApoB-100 and albumin by ELISA. The class given is in vivo. The following applies: i.p., 48-hour period, Digoxin 0.5 mg/kg, Proscillaridin 0.6 mg/kg/day, p≦0.05. As to the method:
Prior to any drug or vehicle treatment, the ratio of ApoB-100 to albumin is approximately 30% higher in the serum of avatars repopulated with hepatocytes from donor A compared to donor B (p=0.032) (FIG. 8A). Human ApoB-100 and albumin is then measured before and after treatment with DMSO (vehicle), Digoxin or Proscillaridin, over a 48-hour period of time (FIG. 8C). […] The concentration of human albumin is unaffected in the serum of the same animals (FIG. 8B).
A sandwich ELISA to detect human albumin in tissue culture supernatants and mouse sera uses a 1:100 dilution of a capture human albumin coating antibody (Bethyl laboratories, A80-129A) and a 1:85,000 dilution of a Horseradish Peroxidase (HRP) conjugated human albumin detection antibody (Bethyl laboratories, A80-129P). Bound antibody is detected using 3,3′,5,5′-tetramethylbenzidine (TMB) and the concentration of albumin in each sample is determined by comparing to a standard curve (Bethyl laboratories, RS10-110). Human lipidated apoB-100 is detected using a commercial sandwich ELISA (product code: 3715-1H-6; MabTech, Inc.) and detected using TMB. The concentration of apoB-100 is determined by comparing to a standard curve using lipidated apoB-100 supplied by the manufacturer.
Fah^−/−Rag2^−/−IL2 gr^−/−NOD (FRGN) mice are generated and supplied by Dr. Markus Grompe. […]
For orientation: In an ELISA, binding on a coated surface is turned into a signal by an enzyme label.

Assay [2] concerns hepatocytes. The experiment in a line: Lipoprotein profile (VLDL/LDL/HDL) of hepatocyte secretion by FPLC. The class given is cell-based. To be noted: 310 nm; 4-hr collection period. On the procedure: FIGS. 13A-B (A) is a graph of the results of a FPLC showing the impact of Digoxin and Proscillaridin on the increase in the size of LDL/VLDL particles and the increase of HDL particle number in serum (FIG. 13B, enhanced).
The experiment is a simple collection of cell culture media and then uses a known assay to measure VLDL/LDL/HDL by HPLC.
Cell culture media (the serum samples of example 5) is collected and then using a known assay (see, Example 3) VLDL/LDL/HDL is measured by FPLC HPLC. The experiment was performed by Evanthia Pashos Ph.D, a post-doctoral researcher at the University of Pennsylvania. Dr. Pashos was instructed what concentration of drugs to use, how long to incubate, and to record lipoprotein profiles for HDL, LDL, VLDL. […] Hepatocyte secretion was collected and analyzed over a 4-hr collection period.

Assay [3] relates to FH patient-specific iPSC-derived hepatocytes. The experiment in a line: ApoB-100 ELISA on culture medium of FH patient-specific iPSC-derived hepatocytes ([…] screen and triplicate validation). The class given is cell-based, human. The following applies: tested in triplicate; FIG. 3.
Experimental: ApoB-100 secretion is measured by enzyme linked immunosorbent assay (ELISA) using an antibody that specifically detects lipidated apoB-100, which represents lipoprotein particles secreted by the iPSC-derived hepatocytes. […] FH patient-specific iPSC cells are differentiated to hepatocyte-like cells in 96-well plates and the levels of lipidated ApoB-100 are measured before and after the application of 2320 small molecules from the [sequence] collection drug library (FIGS. 2A-B).
Using the before-drug and after-drug ApoB-100 concentration for each individual well (see the Examples below; each well represents 1 drug), a post:pre drug ratio of ApoB-100 is generated (referred to as delta-apoB-100; FIGS. 2A and 2B) and primary hits are identified by z-score analysis (FIG. 2B) as described by Zhang (Zhang, X. D., J Biomol Screen 16, 775-785 (2011)). A z-score is calculated for each compound, representing a multiple of the standard deviation of all the compounds included in the parent plate (30 plates total—FIG. 2A). […]
Pre-drug and post-drug apoB-100 concentrations are determined for each compound in the [sequence] library using a standard curve and four-parameter logistic (4PL) regression model. […] Primary hits are validated in secondary replicate experiments (n=3), and statistical significance is determined by a Student's t-test. […]
Assay [4] addresses Na+/K+-ATPase α2 subunit (Rattus norvegicus, UniProt P06686). The following applies: Kolansky et al. 1992; cited from earlier work.
The target in assay [5] is Na+/K+-ATPase α3 subunit (Rattus norvegicus, UniProt P06687). The following applies: Kolansky et al. 1992; cited from earlier work.

As for `C[C@@H]1OC(O[C@@H]2C=C3CC[C@@H]4[C@H](CC[C@]5(C)[C@@H](c6ccc(=O)oc6)CC[C@]45O)[C@@]3(C)CC2)[C@H](O)C(O)C1O` (stereo partly drawn) [Proscillaridin], in assay [1], the “serum human ApoB-100 levels” value is “significantly reduces serum ApoB-100 levels”. For the same molecule, in assay [2], the HDL secretion result is “increase HDL secretion”, the VLD/LDL particle size entry is given as “increase VLD/LDL particle size” and the VLD/LDL total quantity result is “reduce VLD/LDL total quantity”.
For the molecule `CC1O[C@@H](O[C@H]2C(O)C[C@H](O[C@H]3C(O)C[C@H](OC4CC[C@@]5(C)[C@H](CC[C@@H]6[C@@H]5C[C@@H](O)[C@]5(C)[C@@H](C7=CC(=O)OC7)CC[C@]65O)C4)OC3C)OC2C)CC(O)[C@@H]1O` (stereo partly drawn) [Digoxin], in assay [1], the “serum human ApoB-100 levels” value was “significantly reduces serum ApoB-100 levels”. Also, in assay [2], the HDL secretion result is “increase HDL secretion”, the VLD/LDL particle size entry is recorded as “increase VLD/LDL particle size” and the VLD/LDL total quantity entry is “reduce VLD/LDL total quantity”.
For `C[C@@H]1O[C@@H](O[C@H]2C[C@@H](O)[C@]3(CO)[C@H]4[C@H](O)C[C@]5(C)[C@@H](C6=CC(=O)OC6)CC[C@]5(O)[C@@H]4CC[C@]3(O)C2)[C@H](O)[C@H](O)[C@H]1O` [Ouabain, Ouabain (Strophanthin)], in assay [3], the “Reductions of ApoB-100 levels, of DMSO controls” value is reported as 71%. The ouabain sensitivity entry is “approximately 40 nM” in assay [4] and around 80 nM in assay [5].
Regarding Gitoxin, the “Reductions of ApoB-100 levels, of DMSO controls” value in assay [3] came to 27%.
